Tests used:
ROCK = ROCK (Homo sapiens, UniProt O75116); experiment: Evaluation of kinase selectivity: % inhibition rate of ROCK at 1 μmol/L; type: biochemical; details: compound at 1 μmol/L; read-out: % inhibition rate of ROCK2
Procedure: (§1) Biological Example 3: Evaluation of Kinase Selectivity
(§2) % inhibition rate with respect to various kinases (for example KDR etc.) of 1 μmol/L the test compound is measured.
(§3) A general assay condition (substrates, cofactor, ATP concentrations and reaction time etc.) suitable for respective kinase enzyme inhibition activity test is used.
(§4) 1 Prepare the test compounds into 1 mmol/L DMSO solution. 2 Transfer 20 nL of stock to 384 assay plate. Use DMSO as High and Low controls.
(§5) 1 Prepare the 1.3× Enzyme solution containing enzyme, substrate and cofactors. 2 Add 15 μL of 1.3× Enzyme solutions to each well and incubate the plate at room temperature for 30 min. 3 Initiate the reaction by adding 5 μL of 4×ATP solution. The final volume of each well should be 20 μL. 4 Incubate the plate at room temperature for reaction and add 75 μL of stopping buffer (containing 0.5 mol/L EDTA) to terminate the reaction.
(§6) Analyze the sample of each well using EZ reader (PerkinElmer).
(§7) Calculate the % Inhibition using read conversion ratio (CR) following the equation as below.
(§8) Use well treated with DMSO as High Control Use well without enzyme as Low Control

[1] = molecular target: T1, DDR1 phosphorylation in T-47D (ATCC, HTB-133) cells (Homo sapiens, UniProt Q08345); experiment: Measurement of DDR1 phosphorylation suppression rate by using T-47D cells (p-DDR1 ELISA); type: cell-based; details: collagen Type I 10 μg/ml, p-DDR1 (panTyr) ELISA
T1 construct: host or cells: T-47D
T1 sequence (Q08345 19-913): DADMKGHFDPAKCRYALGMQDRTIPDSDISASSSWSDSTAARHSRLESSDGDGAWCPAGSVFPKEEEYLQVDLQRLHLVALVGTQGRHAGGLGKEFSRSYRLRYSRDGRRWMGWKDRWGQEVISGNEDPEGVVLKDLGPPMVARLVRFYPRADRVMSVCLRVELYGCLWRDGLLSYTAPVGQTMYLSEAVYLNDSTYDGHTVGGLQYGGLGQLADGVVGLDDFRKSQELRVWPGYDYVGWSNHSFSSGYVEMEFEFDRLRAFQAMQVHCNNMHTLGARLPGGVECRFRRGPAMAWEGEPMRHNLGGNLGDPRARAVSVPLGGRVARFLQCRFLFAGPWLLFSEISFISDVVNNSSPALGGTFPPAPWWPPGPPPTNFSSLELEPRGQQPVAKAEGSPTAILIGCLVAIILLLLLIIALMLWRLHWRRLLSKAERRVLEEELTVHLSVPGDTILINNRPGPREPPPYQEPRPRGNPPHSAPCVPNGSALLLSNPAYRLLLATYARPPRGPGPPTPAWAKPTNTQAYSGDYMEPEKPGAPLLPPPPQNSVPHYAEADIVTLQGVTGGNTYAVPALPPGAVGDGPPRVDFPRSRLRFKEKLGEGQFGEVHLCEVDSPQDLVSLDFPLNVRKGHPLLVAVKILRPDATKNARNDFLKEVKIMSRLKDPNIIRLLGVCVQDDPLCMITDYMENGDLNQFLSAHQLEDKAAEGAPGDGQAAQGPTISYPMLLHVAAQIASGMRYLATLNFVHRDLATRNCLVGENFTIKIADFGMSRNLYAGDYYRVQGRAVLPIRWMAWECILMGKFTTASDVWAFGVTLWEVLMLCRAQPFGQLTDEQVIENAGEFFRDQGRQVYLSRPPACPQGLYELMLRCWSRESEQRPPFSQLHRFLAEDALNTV
Summary of the method: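 T-47D cells were pre-treated with compound 24 h in RPMI/0.1% BSA (0.1% DMSO, 6-point 10-fold series), then stimulated with rat tail collagen I (10 μg/ml) for 24 h at 37 °C. Lysate p-DDR1 (panTyr) was read by ELISA; IC50 derived from % inhibition versus collagen and no-collagen controls.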

Flt-3 = molecular target: T2, Flt-3 (Homo sapiens, UniProt P36888); experiment: Evaluation of kinase selectivity: % inhibition rate of Flt-3 at 1 μmol/L; type: biochemical; details: compound at 1 μmol/L
T2 sequence (P36888 27-993): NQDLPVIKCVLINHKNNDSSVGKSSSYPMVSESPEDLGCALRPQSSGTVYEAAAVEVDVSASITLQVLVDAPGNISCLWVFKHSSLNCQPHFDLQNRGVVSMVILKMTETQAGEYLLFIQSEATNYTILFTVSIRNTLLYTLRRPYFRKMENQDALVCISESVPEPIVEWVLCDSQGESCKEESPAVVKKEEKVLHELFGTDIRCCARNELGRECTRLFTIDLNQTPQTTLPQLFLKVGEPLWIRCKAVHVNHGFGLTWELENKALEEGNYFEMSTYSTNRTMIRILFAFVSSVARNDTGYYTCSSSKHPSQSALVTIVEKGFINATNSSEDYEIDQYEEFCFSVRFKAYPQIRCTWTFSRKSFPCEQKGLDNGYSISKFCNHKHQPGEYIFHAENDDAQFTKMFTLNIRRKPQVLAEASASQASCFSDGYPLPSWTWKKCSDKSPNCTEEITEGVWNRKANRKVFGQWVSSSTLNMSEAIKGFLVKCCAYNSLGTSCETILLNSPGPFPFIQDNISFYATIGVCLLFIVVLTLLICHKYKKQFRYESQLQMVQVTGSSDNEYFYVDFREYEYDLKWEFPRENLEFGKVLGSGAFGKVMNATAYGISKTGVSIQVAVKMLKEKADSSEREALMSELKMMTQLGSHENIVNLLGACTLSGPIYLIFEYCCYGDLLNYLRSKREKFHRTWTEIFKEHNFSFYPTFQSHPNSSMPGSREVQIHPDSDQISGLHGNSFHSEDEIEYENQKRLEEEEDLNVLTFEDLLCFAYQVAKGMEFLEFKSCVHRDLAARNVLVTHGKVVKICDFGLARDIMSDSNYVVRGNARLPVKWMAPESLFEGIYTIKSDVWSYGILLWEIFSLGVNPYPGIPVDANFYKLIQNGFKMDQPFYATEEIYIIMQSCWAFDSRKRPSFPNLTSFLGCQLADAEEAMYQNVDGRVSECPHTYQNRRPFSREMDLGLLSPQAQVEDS
Procedure: as §1, §2, §3, §4, §5, §6, §7, §8

ROCK, sequence (O75116 whole entry): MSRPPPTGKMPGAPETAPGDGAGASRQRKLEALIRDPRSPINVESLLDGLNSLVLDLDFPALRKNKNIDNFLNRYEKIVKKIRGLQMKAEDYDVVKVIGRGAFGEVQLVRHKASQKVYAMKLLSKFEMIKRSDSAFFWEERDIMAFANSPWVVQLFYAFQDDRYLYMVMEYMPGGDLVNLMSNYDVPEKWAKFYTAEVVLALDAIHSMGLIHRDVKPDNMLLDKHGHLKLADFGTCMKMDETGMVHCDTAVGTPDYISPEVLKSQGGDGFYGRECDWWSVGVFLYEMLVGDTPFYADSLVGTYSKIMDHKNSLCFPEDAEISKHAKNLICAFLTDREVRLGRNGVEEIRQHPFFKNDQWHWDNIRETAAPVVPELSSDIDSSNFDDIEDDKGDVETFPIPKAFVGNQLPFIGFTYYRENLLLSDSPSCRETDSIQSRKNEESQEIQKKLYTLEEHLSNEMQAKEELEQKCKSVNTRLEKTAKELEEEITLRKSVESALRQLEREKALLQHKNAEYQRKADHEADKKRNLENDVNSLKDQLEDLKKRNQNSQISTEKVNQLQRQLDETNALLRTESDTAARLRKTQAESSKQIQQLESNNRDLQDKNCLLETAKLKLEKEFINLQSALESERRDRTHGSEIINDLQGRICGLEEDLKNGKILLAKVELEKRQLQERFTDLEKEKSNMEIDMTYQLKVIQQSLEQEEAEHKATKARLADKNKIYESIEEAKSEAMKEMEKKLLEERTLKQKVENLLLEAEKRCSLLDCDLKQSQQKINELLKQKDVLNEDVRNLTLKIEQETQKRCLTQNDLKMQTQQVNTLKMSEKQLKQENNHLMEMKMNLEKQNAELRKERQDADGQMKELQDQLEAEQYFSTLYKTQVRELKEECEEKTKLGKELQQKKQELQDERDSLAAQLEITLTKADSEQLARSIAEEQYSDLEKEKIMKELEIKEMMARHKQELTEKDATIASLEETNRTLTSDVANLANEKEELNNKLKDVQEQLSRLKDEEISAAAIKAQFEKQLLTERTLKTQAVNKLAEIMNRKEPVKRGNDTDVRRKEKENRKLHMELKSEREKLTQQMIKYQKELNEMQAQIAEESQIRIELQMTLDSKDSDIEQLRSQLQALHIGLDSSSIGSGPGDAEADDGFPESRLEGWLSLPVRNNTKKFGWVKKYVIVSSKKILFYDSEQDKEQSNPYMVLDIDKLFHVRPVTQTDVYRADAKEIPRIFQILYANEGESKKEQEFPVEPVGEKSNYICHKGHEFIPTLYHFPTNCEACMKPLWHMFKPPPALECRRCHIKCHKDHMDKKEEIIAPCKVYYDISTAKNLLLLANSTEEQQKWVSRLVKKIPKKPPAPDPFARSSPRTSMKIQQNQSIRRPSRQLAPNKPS

Cc1cc(Oc2ccnc(N)n2)ccc1N1C(=O)CN(c2ccc(F)c(OC(F)(F)F)c2)C1=O [Example 3(110), 3-{4-[(2-amino-4-pyrimidinyl)oxy]-2-methylphenyl}-1-[4-fluoro-3-(trifluoromethoxy)phenyl]-2,4-imidazolidinedione]
inhibition at 1 µM (ROCK): -2%
IC50 [1]: 1 nM
inhibition at 1 µM (Flt-3): 6%

From patent US20220306640A1, “HYDANTOIN DERIVATIVE” (ONO PHARMACEUTICAL CO., LTD., priority 2019, published 2022)
